In PubChem BioAssay (NCI):
Where “and” joins values, the source holds several entries; their conditions need not be identical. Equal values may be shown once.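 Interpolation was linear, between the two tested concentrations surrounding the appropriate level; five concentrations were tested over 48 hours in 96-well plates. GI50 marks 50% less growth. TGI: concentration producing complete growth inhibition.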

Assays:
Experiment in all cases: NCI tumour cell line growth inhibition, 48 h
[1] = test system: KM12 colon
[2] = test system: NCI-H226 lung
[3] = test system: NCI-H460 lung
[4] = test system: NCI-H522 lung
[5] = test system: OVCAR-8 ovarian
[6] = test system: RPMI-8226 leukemia
[7] = test system: SK-MEL-2 melanoma
[8] = test system: UACC-257 melanoma

## COc1ccc(S(=O)(=O)N2CCNCC2)cc1OC
[1]
  GI50: > 100 µM
  TGI: > 100 µM
[2]
  GI50: > 100 µM
  TGI: > 100 µM
[3]
  GI50: > 100 µM
  TGI: > 100 µM
[4]
  GI50: > 100 µM
  TGI: > 100 µM
[5]
  GI50: > 100 µM
  TGI: > 100 µM
[6]
  GI50: > 100 µM
  TGI: > 100 µM
[7]
  GI50: > 100 µM
  TGI: > 100 µM
[8]
  GI50: > 100 µM
  TGI: > 100 µM

## CSC1=Nc2c(c(C)c(-c3ccccc3)n2COC(CO)CO)C2=NC(=O)CN12
[1]
  GI50: > 100 µM
  TGI: > 100 µM
[2]
  GI50: 88.2 µM
  TGI: > 100 µM
[3]
  GI50: > 100 µM
  TGI: > 100 µM
[4]
  GI50: > 100 µM
  TGI: > 100 µM
[5]
  GI50: > 100 µM
  TGI: > 100 µM
[6]
  GI50: > 100 µM
  TGI: > 100 µM
[7]
  GI50: > 100 µM
  TGI: > 100 µM
[8]
  GI50: > 100 µM
  TGI: > 100 µM

## Cn1c(C(=O)c2cccc3ccccc23)nc2ccccc21
[1]
  GI50: > 100 µM
  TGI: > 100 µM
[2]
  GI50: > 100 µM
  TGI: > 100 µM
[3]
  GI50: > 100 µM
  TGI: > 100 µM
[4]
  GI50: > 100 µM
  TGI: > 100 µM
[5]
  GI50: > 100 µM
  TGI: > 100 µM
[6]
  GI50: > 100 µM
  TGI: > 100 µM
[7]
  GI50: > 100 µM
  TGI: > 100 µM
[8]
  GI50: > 100 µM
  TGI: > 100 µM

## CCn1ccnc1C(=O)/C=C/c1ccc(CC(=O)Nc2ccc(F)cc2)cc1
[1]
  GI50: 3.06 µM
  TGI: 8.33 µM
[2]
  GI50: 3.61 µM
  TGI: 9.53 µM
[3]
  GI50: 2.64 µM
  TGI: 6.51 µM
[4]
  GI50: 3.92 µM
  TGI: 10.2 µM
[5]
  GI50: 4.86 µM
  TGI: > 16.7 µM
[6]
  GI50: 2.28 µM
  TGI: 8.09 µM
[7]
  GI50: 6.26 µM
  TGI: > 16.7 µM
[8]
  GI50: 14 µM
  TGI: > 16.7 µM

## COC(=O)c1cc([N+](=O)[O-])cc([N+](=O)[O-])c1Cl
[1]
  GI50: 11.3 µM
  TGI: 23.6 µM
[2]
  GI50: 3.58 µM
  TGI: 13.9 µM
[3]
  GI50: 13.1 µM
  TGI: 39 µM
[4]
  GI50: 1.82 µM
  TGI: 3.31 µM
[5]
  GI50: 2.01 µM
  TGI: 4.38 µM
[6]
  GI50: 2.4 µM
  TGI: 5.66 µM
[7]
  GI50: 3.52 µM
  TGI: 12.6 µM
[8]
  GI50: 1.58 µM
  TGI: 2.98 µM

## N#Cc1cccc(Nc2ncc(-c3ccccc3)o2)c1
[1]
  GI50: 8.18 µM
  TGI: > 25 µM
[2]
  GI50: 8.65 µM
  TGI: > 25 µM
[3]
  GI50: 11.3 µM
  TGI: > 25 µM
[4]
  GI50: 19.2 µM
  TGI: > 25 µM
[5]
  GI50: 16.7 µM
  TGI: > 25 µM
[6]
  GI50: > 25 µM
  TGI: > 25 µM
[7]
  GI50: > 25 µM
  TGI: > 25 µM
[8]
  GI50: > 25 µM
  TGI: > 25 µM

## COc1cc2c(cc1NC(=O)C(Cl)Cl)-c1ccc(NC(=O)C(Cl)Cl)cc1C2
[1]
  GI50: 0.336 µM
  TGI: 1.17 µM
[2]
  GI50: 6.04 µM
  TGI: 17.1 µM
[3]
  GI50: 0.25 µM
  TGI: 0.69 µM
[4]
  GI50: 5.83 µM
  TGI: 19.7 µM
[5]
  GI50: 0.439 µM
  TGI: 1.68 µM
[6]
  GI50: 0.374 µM
  TGI: 1.21 µM
[7]
  GI50: 0.708 µM
  TGI: 2.07 µM
[8]
  GI50: 1.02 µM
  TGI: 3.54 µM

## C[C@@H](NC(=O)c1ccc(F)cc1)c1ccc2c(c1)CCN2C(=O)C1CCOCC1
[1]
  GI50: > 100 µM
  TGI: > 100 µM
[2]
  GI50: > 100 µM
  TGI: > 100 µM
[3]
  GI50: > 100 µM
  TGI: > 100 µM
[4]
  GI50: > 100 µM
  TGI: > 100 µM
[5]
  GI50: > 100 µM
  TGI: > 100 µM
[6]
  GI50: > 100 µM
  TGI: > 100 µM
[7]
  GI50: > 100 µM
  TGI: > 100 µM
[8]
  GI50: > 100 µM
  TGI: > 100 µM

## C=C1C(=O)O[C@H]2[C@H]1CC/C(COC(=O)NCc1c[nH]c3ccc(F)cc13)=C\CC[C@@]1(C)O[C@@H]21
[1]
  GI50: 3.03 µM
  TGI: 10.3 µM
[2]
  GI50: 1.74 µM
  TGI: 3.3 µM
[3]
  GI50: 2.4 µM
  TGI: 6.03 µM
[4]
  GI50: 0.835 µM
  TGI: 2.4 µM
[5]
  GI50: 1.68 µM
  TGI: 3.91 µM
[6]
  GI50: 0.456 µM
  TGI: 2.27 µM
[7]
  GI50: 1.5 µM
  TGI: 3.39 µM
[8]
  GI50: 1.69 µM
  TGI: 3.29 µM

## C/C(=N\NC(=S)N1CCN(c2ccccn2)CC1)c1ncccn1
[1]
  GI50: 0.153 µM
  TGI: 5.92 µM and 15.1 µM
[2]
  GI50: 1.71 µM
  TGI: 5.78 µM and 11 µM
[3]
  GI50: 0.0538 µM
  TGI: 5.88 µM and 14 µM
[4]
  GI50: 0.0859 µM
  TGI: 1.45 µM and 2.06 µM
[5]
  GI50: 0.0154 µM
  TGI: 5.4 µM and 16.4 µM
[6]
  GI50: < 0.0205 µM
  TGI: 2.94 µM and 12.1 µM
[7]
  GI50: 2.48 µM
  TGI: 5.88 µM and 18.5 µM
[8]
  GI50: 0.0339 µM
  TGI: 1.42 µM and 4.27 µM

## COc1ccc2nc3cc(Cl)ccc3c(N3CCN(c4ccnc(N5CCN(C)CC5)n4)CC3)c2c1
[1]
  GI50: 2.09 µM
  TGI: 4.38 µM
[2]
  GI50: 49.6 µM
  TGI: > 100 µM
[3]
  GI50: 2.29 µM
  TGI: 5.43 µM
[4]
  GI50: 1.61 µM
  TGI: 3.13 µM
[5]
  GI50: 1.93 µM
  TGI: 3.98 µM
[6]
  GI50: 2.04 µM
  TGI: 4.84 µM
[7]
  GI50: 3.72 µM
  TGI: 12.2 µM
[8]
  GI50: 11.4 µM
  TGI: 24.4 µM

## CC1CCN(CCOc2ccc(CNc3ccc4nc(CCC5CCCCC5)[nH]c4c3)cc2)CC1
[1]
  GI50: 1.77 µM
  TGI: 3.51 µM
[2]
  GI50: 1.63 µM
  TGI: 3.48 µM
[3]
  GI50: 1.72 µM
  TGI: 3.34 µM
[4]
  GI50: 1.82 µM
  TGI: 3.58 µM
[5]
  GI50: 1.96 µM
  TGI: 4.24 µM
[6]
  GI50: 1.38 µM
  TGI: 3.35 µM
[7]
  GI50: 1.83 µM
  TGI: 3.41 µM
[8]
  GI50: 1.88 µM
  TGI: 3.74 µM

## CC(C)N(Cc1ccc(F)cc1)c1ccc(CO)c(Cl)c1
[1]
  GI50: 10.9 µM
  TGI: 23.4 µM
[2]
  GI50: 0.054 µM
  TGI: 0.179 µM
[3]
  GI50: 0.144 µM
  TGI: 10.7 µM
[4]
  GI50: 11.3 µM
  TGI: 26.7 µM
[5]
  GI50: 10.6 µM
  TGI: 25 µM
[6]
  GI50: 1.46 µM
  TGI: 20.1 µM
[7]
  GI50: 1.61 µM
  TGI: 16.6 µM
[8]
  GI50: 0.0837 µM
  TGI: 0.316 µM

## CN(C)c1nc(N)c(C#N)c(C#N)c1C#N
[1]
  TGI: > 10 µM
[2]
  TGI: > 10 µM
[3]
  TGI: > 10 µM
[4]
  TGI: 3.8 µM
[5]
  TGI: > 10 µM
[6]
  TGI: > 10 µM
[7]
  TGI: > 10 µM
[8]
  TGI: > 10 µM

## CN(C)CCCn1c2c(c3cc4c(cc3c1=O)OCO4)C(=O)c1ccccc1-2
[1]
  GI50: 2.89 µM
  TGI: 14.5 µM
[2]
  GI50: 3.25 µM
  TGI: 11.3 µM
[3]
  GI50: 8.82 µM
  TGI: > 32.8 µM
[4]
  GI50: 4.59 µM
  TGI: 35.2 µM
[5]
  GI50: 0.0576 µM
  TGI: 0.922 µM
[6]
  GI50: 0.208 µM
  TGI: 2.82 µM
[7]
  GI50: 18.4 µM
  TGI: > 59.5 µM
[8]
  GI50: 1.54 µM
  TGI: 14.9 µM
